Measured values as given in paper PMC9250534, “Synthesis and direct assay of large macrocycle diversities by combinatorial late-stage modification at picomole scale” (Nature Communications, 2022).
Numbered stars: 1 amine (or outer) side, 2 acyl side, 3 side chain; on linkers, the order of the positions; unused ones are H or OH. Bridge positions count the residues as written; N and C are the ends. Square brackets hold non-standard residues; d marks the D form. Peptide text beside a SMILES is read from it. * marks the point of attachment. ξ: configuration not given here. Pro(4S-NHCO(5-Cl-2-thienyl)) = O=C(N[C@@H]1CN[C@H](C(=O)O)C1)c1ccc(Cl)s1; ξPro(4-NHCO(5-Cl-2-thienyl)) = O=C(NC1CNC(C(=O)O)C1)c1ccc(Cl)s1; Pyrazinoyl(5-oxo-4H) = O=C(c1c[nH]c(=O)cn1)*; 1,2,3Thiadiazole5CO(4-Me) = Cc1nnsc1C(=O)*; Isoorotoyl = O=C(c1c[nH]c(=O)[nH]c1=O)*; Nicotinoyl(6-OMe) = COc1ccc(C(=O)*)cn1; 2Thenoyl(5-Cl) = O=C(c1ccc(Cl)s1)*; Phenoxyacetyl = O=C(COc1ccccc1)*; Cysteamide = C(CS[*:3])N[*:1]; X3 = O=C(Cc1c[nH]c2ccccc12)*; 2Furoyl = O=C(c1ccco1)*; Api = NC1(C(=O)O)CCNCC1; Orn = NCCC[CH](N)C(=O)O; Dap = NC[C@H](N)C(=O)O; Bz = O=C(c1ccccc1)*; Mpa = O=C(O)CCS

Target: T1, thrombin (Homo sapiens, UniProt P00734)
T1 construct: consists of two polypeptide chains of 36 (light chain) and 259 amino acid
Assay: Thrombin inhibition screen of crude macrocycle reactions (residual thrombin activity, fluorogenic substrate Z-Gly-Gly-Arg-AMC)
Format: biochemical
Settings: 10 µM macrocycle concentration; for percent residual thrombin activity: crude reactions, Library 1a-l, scaffold AA1-AA2-AA3 combined with 1-16 or '-'; for % thrombin activity, Original screen / % thrombin activity, Repeat screen: macrocycles containing acid 14, crude reaction; for % thrombin activity, Repeat screen: replicate reaction and screen
Outline: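 Residual activity was measured as the AMC release rate after adding 50 μM Z-Gly-Gly-Arg-AMC. This followed a 10-min room-temperature preincubation of 2 nM thrombin with 10 μM single macrocycles in pH 7.4 Tris buffer (0.6% DMSO). Percent inhibition was taken against the mean slope of DMSO controls.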

Row | percent residual thrombin activity | % thrombin activity, Original screen | % thrombin activity, Repeat screen | SMILES | further results
1 | 112.778% |  |  | O=C1CCSSCCNC(=O)[C@H](CCCCNC(=O)c2ccco2)NC(=O)c2cccc(c2)CNC(=O)[C@H](CO)N1 [S-B5-D1/16] | 
2 | 107.119% |  |  | CC(C)[C@@H]1NC(=O)CCSSCCNC(=O)[C@@H]2CCCN2C(=O)[C@H](CCCCNC(=O)c2c[nH]c(=O)cn2)NC1=O [V-D1-B1/9] ([Mpa]VK(Pyrazinoyl(5-oxo-4H))P-Cysteamide; disulfide 1-C) | 
3 | 107.385% |  |  | COc1ccc(C(=O)NCCCC[C@@H]2NC(=O)[C@H](C(C)C)NC(=O)CCSSCCNC(=O)[C@@H]3CCCN3C2=O)cn1 [V-D1-B1/10] ([Mpa]VK(Nicotinoyl(6-OMe))P-Cysteamide; disulfide 1-C) | 
4 | 105.267% |  |  | CC(C)[C@@H]1NC(=O)CCSSCCNC(=O)[C@@H]2CCCN2C(=O)[C@H](CCCCNC(=O)Cc2c[nH]c3ccccc23)NC1=O [V-D1-B1/12] ([Mpa]VK(X3)P-Cysteamide; disulfide 1-C) | 
5 | 111.167% |  |  | CC(C)[C@@H]1NC(=O)CCSSCCNC(=O)[C@@H]2CCCN2C(=O)[C@H](CCCCNC(=O)COc2ccccc2)NC1=O [V-D1-B1/13] ([Mpa]VK(Phenoxyacetyl)P-Cysteamide; disulfide 1-C) | 
6 | 105.594% |  |  | CC(C)[C@@H]1NC(=O)CCSSCCNC(=O)[C@@H]2CCCN2C(=O)[C@H](CCCCNC(=O)c2ccc(Cl)s2)NC1=O [V-D1-B1/14] ([Mpa]VK(2Thenoyl(5-Cl))P-Cysteamide; disulfide 1-C) | 
7 | 114.617% |  |  | Cc1nnsc1C(=O)NCCCC[C@@H]1NC(=O)[C@H](C(C)C)NC(=O)CCSSCCNC(=O)[C@@H]2CCCN2C1=O [V-D1-B1/15] ([Mpa]VK(1,2,3Thiadiazole5CO(4-Me))P-Cysteamide; disulfide 1-C) | 
8 | 110.34% |  |  | CC(C)[C@@H]1NC(=O)CCSSCCNC(=O)[C@@H]2CCCN2C(=O)[C@H](CCCCNC(=O)c2ccco2)NC1=O [V-D1-B1/16] ([Mpa]VK(2Furoyl)P-Cysteamide; disulfide 1-C) | 
9 | 92.2757% |  |  | O=C1CCSSCCNC(=O)[C@H](CCCCNC(=O)c2ccccc2)NC(=O)C2(CC2)CNC(=O)[C@H](Cc2c[nH]c3ccccc23)N1 [W-B6-D1/1] | 
10 | 88.7647% |  |  | O=C(COc1ccccc1)NCCCC[C@@H]1NC(=O)C2(CC2)CNC(=O)[C@H](Cc2c[nH]c3ccccc23)NC(=O)CCSSCCNC1=O [W-B6-D1/13] | 
11 | 81.7178% |  |  | O=C1CCSSCCNC(=O)[C@H](CCCCNC(=O)c2ccc(Cl)s2)NC(=O)C2(CC2)CNC(=O)[C@H](Cc2c[nH]c3ccccc23)N1 [W-B6-D1/14] | 
12 | 87.3276% |  |  | NCCCC[C@@H]1NC(=O)C2(CC2)CNC(=O)[C@H](Cc2c[nH]c3ccccc23)NC(=O)CCSSCCNC1=O [W-B6-D1/-] | 
13 | 101.199% |  |  | O=C1CCSSCCNC(=O)[C@@H]2CCCN2C(=O)[C@H](CCCCNC(=O)c2ccccc2)NC(=O)[C@H](Cc2c[nH]c3ccccc23)N1 [W-D1-B1/1] ([Mpa]WK(Bz)P-Cysteamide; disulfide 1-C) | 
14 | 99.1805% |  |  | O=C1CCSSCCNC(=O)[C@@H]2CCCN2C(=O)[C@H](CCCCNC(=O)c2c[nH]c(=O)[nH]c2=O)NC(=O)[C@H](Cc2c[nH]c3ccccc23)N1 [W-D1-B1/11] ([Mpa]WK(Isoorotoyl)P-Cysteamide; disulfide 1-C) | 
15 | 96.359% |  |  | O=C(COc1ccccc1)NCCCC[C@@H]1NC(=O)[C@H](Cc2c[nH]c3ccccc23)NC(=O)CCSSCCNC(=O)[C@@H]2CCCN2C1=O [W-D1-B1/13] ([Mpa]WK(Phenoxyacetyl)P-Cysteamide; disulfide 1-C) | 
16 |  | 108.1% | 109.9% | CC(C)[C@H]1NC(=O)[C@H](CCCCNC(=O)c2ccc(Cl)s2)NC(=O)[C@@H]2CCCN2C(=O)CCSSCCNC1=O [X B1 D1 v] ([Mpa]PK(2Thenoyl(5-Cl))[dV]-Cysteamide; disulfide 1-C) | 
17 |  | 103.7% | 108.0% | O=C(NCCCC[C@@H]1NC(=O)[C@@H]2CCCN2C(=O)CCSSCCNC(=O)[C@@H](Cc2ccc(O)cc2)NC1=O)c1ccc(Cl)s1 [X B1 D1 y] ([Mpa]PK(2Thenoyl(5-Cl))[dY]-Cysteamide; disulfide 1-C) | 
18 |  | 86.2% | 88.2% | O=C(NC[C@@H]1NC(=O)[C@@H]2CCCN2C(=O)CCSSCCNC(=O)[C@@H](Cc2ccccc2)NC1=O)c1ccc(Cl)s1 [X B1 D3 f] ([Mpa]P[Dap](2Thenoyl(5-Cl))[dF]-Cysteamide; disulfide 1-C) | 
19 |  | 96.1% | 98.4% | NC(=O)CC[C@@H]1NC(=O)[C@@H]2C[C@H](NC(=O)c3ccc(Cl)s3)CN2C(=O)[C@@H]2CCCN2C(=O)CCSSCCNC1=O [X B1 D5 Q] ([Mpa]P[Pro(4S-NHCO(5-Cl-2-thienyl))]Q-Cysteamide; disulfide 1-C) | 

Row | percent residual thrombin activity | % thrombin activity, Original screen | % thrombin activity, Repeat screen | SMILES | further results
20 |  | 90.0% | 94.0% | O=C1NCCSSCCC(=O)N2CCC[C@H]2C(=O)NC2(CCN(C(=O)c3ccc(Cl)s3)CC2)C(=O)N[C@H]1Cc1c[nH]cn1 [X B1 D6 H] ([Mpa]P[Api](2Thenoyl(5-Cl))H-Cysteamide; disulfide 1-C) | 
21 |  | 91.7% | 93.5% | NC(=O)CC[C@@H]1NC(=O)C2(CCN(C(=O)c3ccc(Cl)s3)CC2)NC(=O)[C@@H]2CCCN2C(=O)CCSSCCNC1=O [X B1 D6 Q] ([Mpa]P[Api](2Thenoyl(5-Cl))Q-Cysteamide; disulfide 1-C) | 
22 |  | 94.2% | 99.9% | CC(C)CC1NC(=O)C2CCCN2C(=O)CCSSCCNC(=O)C2CC(NC(=O)c3ccc(Cl)s3)CN2C1=O (stereo not drawn) [X B1 L D5] ([Mpa]PL[ξPro(4-NHCO(5-Cl-2-thienyl))]-Cysteamide; disulfide 1-C; configuration not given here) | 
23 |  | 92.6% | 89.5% | NC(=O)CCC1NC(=O)C2CCCN2C(=O)CCSSCCNC(=O)C(CCCNC(=O)c2ccc(Cl)s2)NC1=O (stereo not drawn) [X B1 Q D2] ([Mpa]PQ[Orn](2Thenoyl(5-Cl))-Cysteamide; disulfide 1-C; configuration not given here) | 
24 |  | 94.1% | 97.2% | O=C1NC2(CCN(C(=O)c3ccc(Cl)s3)CC2)C(=O)NCCSSCCC(=O)N2CCCC2C(=O)NC1Cc1c[nH]c2ccccc12 (stereo not drawn) [X B1 w D6] ([Mpa]PW[Api](2Thenoyl(5-Cl))-Cysteamide; disulfide 1-C; configuration not given here) | 
25 |  | 83.8% | 76.6% | O=C1CCSSCCNC(=O)[C@H](CO)NC(=O)[C@H](CNC(=O)c2ccc(Cl)s2)NC(=O)CCN1 [X B2 D3 S] | % thrombin activity, Original screen (listed as X B2 D3 s): 102.4%; % thrombin activity, Repeat screen (listed as X B2 D3 s): 99.4%
26 |  | 88.8% | 91.0% | O=C1CCSSCCNC(=O)[C@@H](Cc2c[nH]c3ccccc23)NC(=O)[C@@H](CNC(=O)c2ccc(Cl)s2)NC(=O)CCN1 [X B2 D4 w] | 
27 |  | 95.8% | 101.8% | O=C1CCSSCCNC(=O)C(Cc2c[nH]c3ccccc23)NC(=O)C2CC(NC(=O)c3ccc(Cl)s3)CN2C(=O)CCN1 (stereo not drawn) [X B2 D5 w] | 
28 |  | 34.0% | 33.5% | O=C1CCSSCCNC(=O)[C@H](CNC(=O)c2ccc(Cl)s2)NC(=O)[C@H](Cc2ccccc2)NC(=O)CCN1 [X B2 F D3] | 
29 |  | 96.8% | 101.7% | O=C1CCSSCCNC(=O)C2(CCN(C(=O)c3ccc(Cl)s3)CC2)NC(=O)[C@H](Cc2c[nH]cn2)NC(=O)CCN1 [X B2 H D6] | 
30 |  | 61.5% | 68.8% | O=C1CCSSCCNC(=O)[C@@H](CNC(=O)c2ccc(Cl)s2)NC(=O)[C@H](Cc2c[nH]c3ccccc23)NC(=O)CCN1 [X B2 W D4] | 
31 |  | 96.5% | 92.7% | C[C@H]1NC(=O)CCNC(=O)CCSSCCNC(=O)C2(CCN(C(=O)c3ccc(Cl)s3)CC2)NC1=O [X B2 a D6] | 
32 |  | 91.1% | 96.6% | O=C1CCSSCCNC(=O)C(Cc2ccccc2)NC(=O)C(CNC(=O)c2ccc(Cl)s2)NC(=O)c2ccc(cc2)CN1 (stereo not drawn) [X B3 D3 f] | 
33 |  | 62.7% | 59.9% | O=C1CCSSCCNC(=O)C(CNC(=O)c2ccc(Cl)s2)NC(=O)C(Cc2ccccc2)NC(=O)c2ccc(cc2)CN1 (stereo not drawn) [X B3 F D3] | 
34 |  | 91.2% | 94.4% | CC(C)C[C@@H]1NC(=O)c2ccc(cc2)CNC(=O)CCSSCCNC(=O)C2(CCN(C(=O)c3ccc(Cl)s3)CC2)NC1=O [X B3 L D6] | 
35 |  | 102.1% | 107.7% | CC(C)[C@@H]1NC(=O)c2ccc(cc2)CNC(=O)CCSSCCNC(=O)[C@H](CCCCNC(=O)c2ccc(Cl)s2)NC1=O [X B3 V D1] | 
36 |  | 106.6% | 108.9% | O=C1CCSSCCNC(=O)[C@H](CCCCNC(=O)c2ccc(Cl)s2)NC(=O)[C@@H](Cc2ccc(O)cc2)NC(=O)c2ccc(cc2)CN1 [X B3 y D1] | 
37 |  | 88.0% | 89.2% | O=C1CCSSCCNC(=O)[C@H](CNC(=O)c2ccc(Cl)s2)NC(=O)[C@@H](Cc2ccc(O)cc2)NC(=O)c2ccc(cc2)CN1 [X B3 y D3] | 
38 |  | 96.9% | 99.9% | O=C(NCCCCC1NC(=O)C2CCCN(C2)C(=O)CCSSCCNC(=O)C(CO)NC1=O)c1ccc(Cl)s1 (stereo not drawn) [X B4 D1 S] | 
